The term MIC denotes the lowest concentration found to suppress growth.

Among the test systems are Candida albicans 105; Candida albicans 3153A; Escherichia coli DC2; Escherichia coli O111; Escherichia coli O157:H7; Escherichia coli UB1005; Bacillus cereus; Escherichia coli; Lactococcus lactis; Staphylococcus aureus; Acinetobacter sp.; Klebsiella aerogenes; Klebsiella sp.; Proteus mirabilis; Providencia stuartii; Escherichia coli 780; Escherichia coli 804; Staphylococcus aureus 75.

What all share (assay): ≥ marks a high value that may be exact or a test limit, other limits are often not marked, values filed in µg/mL are converted to µM
The test system of experiment [1] is Candida albicans ATCC 64549.
Experiment [2] has as its system Enterococcus faecalis ATCC 29212.
Experiment [3] relates to Pseudomonas aeruginosa PAO1.
The subject of experiment [4] is Pseudomonas aeruginosa Z61.
For experiment [5], the system named is Salmonella enterica serovar Typhimurium MS4252S.
The subject of experiment [6] is Salmonella enterica subsp. enterica serovar Typhimurium ATCC 14028s.
In experiment [7] the test system is Staphylococcus aureus 1056.
Experiment [8] deals with Staphylococcus aureus NCTC 4163.
The subject of experiment [9] is Staphylococcus aureus R147.
The subject of experiment [10] is Staphylococcus epidermidis.
For experiment [11], the system named is Bacillus subtilis ATCC 6633.
The subject of experiment [12] is Candida albicans ATCC 36232.
Experiment [13] concerns Escherichia coli KCTC 2433.
Experiment [14] deals with Klebsiella pneumoniae ATCC 10031.
Experiment [15] concerns Micrococcus luteus ATCC 4698.
Experiment [16] relates to Proteus mirabilis ATCC 25933.
In experiment [17] the test system is Pseudomonas aeruginosa ATCC 9027.
For experiment [18], the system named is Shigella dysenteriae ATCC 9752.
Experiment [19] relates to Staphylococcus aureus KCTC 3881.
Experiment [20] deals with Staphylococcus epidermidis ATCC 12228.
The test system of experiment [21] is Escherichia coli NCTC 10418.
The subject of experiment [22] is Escherichia coli NCTC 8007.
Experiment [23] concerns Staphylococcus aureus NCTC 10571.
The test system of experiment [24] is Acinetobacter baumannii 97830.
The subject of experiment [25] is Acinetobacter baumannii 9931.
In experiment [26] the test system is Acinetobacter baumannii ATCC 19606.
The subject of experiment [27] is Bacillus subtilis ATCC 23857.
Experiment [28] deals with Escherichia coli ATCC 25922.
Experiment [29] deals with Klebsiella pneumoniae ATCC 700603.
The subject of experiment [30] is Pseudomonas aeruginosa 50.
In experiment [31] the test system is Pseudomonas aeruginosa 73.
In experiment [32] the test system is Pseudomonas aeruginosa ATCC 27853.
Experiment [33] relates to Staphylococcus aureus 113.
Experiment [34] has as its system Staphylococcus aureus ATCC 25923.
Experiment [35] deals with Staphylococcus aureus ATCC 29213.

Molecules are shown by their SMILES. Values after ≈ are worked out from the molar mass of the structure shown. Values joined by “and” are separate entries in the source; they are usually repeats but may differ in a detail not shown here. Equal values may be shown once.

Regarding `CSCC[C@H](NC(=O)[C@H](CC(N)=O)NC(=O)[C@H](CCCN=C(N)N)NC(=O)[C@H](CCC(N)=O)NC(=O)[C@H](Cc1c[nH]c2ccccc12)NC(=O)[C@H](CCC(N)=O)NC(=O)[C@H](Cc1ccccc1)NC(=O)[C@@H](N)CS)C(=O)N[C@@H](CCCN=C(N)N)C(=O)N[C@@H](CCCCN)C(=O)N[C@H](C(=O)N[C@@H](CCCN=C(N)N)C(=O)O)C(C)C` [CFQWQRNMRKVR], the MIC in experiment [1] came to 7.57 µM (≈ 12.5 µg/mL).
For `CC[C@H](C)[C@H](NC(=O)[C@@H]1CCCN1C(=O)[C@H](CCCN=C(N)N)NC(=O)[C@@H]1CCCN1C(=O)[C@@H](NC(=O)[C@H](CCCN=C(N)N)NC(=O)[C@@H](N)CCCN=C(N)N)[C@@H](C)CC)C(=O)N[C@@H](CC(C)C)C(=O)N[C@@H](CC(C)C)C(=O)N1CCC[C@H]1C(=O)N[C@@H](Cc1c[nH]c2ccccc12)C(=O)N[C@@H](CCCN=C(N)N)C(=O)N1CCC[C@H]1C(=O)N1CCC[C@H]1C(=O)N[C@@H](CCCN=C(N)N)C(=O)N1CCC[C@H]1C(=O)N[C@H](C(=O)N1CCC[C@H]1C(=O)N[C@@H](CCCN=C(N)N)C(=O)N1CCC[C@H]1C(=O)N[C@@H](CCC(N)=O)C(=O)N1CCC[C@H]1C(=O)N[C@@H](CCC(N)=O)C(=O)N1CCC[C@H]1C(=O)N[C@H](C(=O)N1CCC[C@H]1C(=O)N[C@@H](CCCN=C(N)N)C(=O)N[C@@H](Cc1c[nH]c2ccccc12)C(=O)N[C@@H](CC(C)C)C(N)=O)[C@@H](C)CC)[C@@H](C)CC` [RRIPRPILLPWRPPRPIPRPQPQPIPRWL], the MIC with Candida albicans 105 was found to be 17.8 µM (≈ 64 µg/mL); against Candida albicans 3153A, 17.8 µM (≈ 64 µg/mL); in experiment [2], 17.8 µM (≈ 64 µg/mL); against Escherichia coli DC2, 0.555 µM (≈ 2 µg/mL); against Escherichia coli O111, 4.44 µM (≈ 16 µg/mL); in the experiment on Escherichia coli O157:H7, 8.89 µM (≈ 32 µg/mL). In addition, the minimum inhibitory concentration (MIC) worked out at 2.22 µM (≈ 8 µg/mL) in the experiment with Escherichia coli UB1005; 4.44 µM (≈ 16 µg/mL) in experiment [3]; 8.89 µM (≈ 32 µg/mL) in experiment [4]; 0.555 µM (≈ 2 µg/mL) in [5]; 8.89 µM (≈ 32 µg/mL) in experiment [6]; 17.8 µM (≈ 64 µg/mL) in experiment [7]. For the same compound, the values for the MIC in [8], in experiment [9] and in experiment [10] were 17.8 µM (≈ 64 µg/mL), 8.89 µM (≈ 32 µg/mL) and 8.89 µM (≈ 32 µg/mL), respectively.
Turning to `CC[C@H](C)[C@H](NC(=O)[C@H](CC(C)C)NC(=O)[C@@H](N)Cc1ccccc1)C(=O)NCC(=O)N[C@@H](CCSC)C(=O)N[C@H](C(=O)N[C@@H](CCC(N)=O)C(=O)NCC(=O)N[C@@H](CC(C)C)C(=O)N[C@H](C(=O)N[C@H]1CSSC[C@@H](C(=O)O)NC(=O)[C@H](CCCCN)NC(=O)[C@H](CCCN=C(N)N)NC(=O)[C@H]([C@@H](C)O)NC(=O)[C@H]([C@@H](C)CC)NC(=O)[C@H](CC(C)C)NC1=O)[C@@H](C)CC)[C@@H](C)O` [FLIGMTQGLICLITRKC], the MIC in the experiment on Bacillus cereus is 25.6 µM (≈ 48.9 µg/mL); in [11], 13.1 µM (≈ 25 µg/mL); in experiment [12], no less than 52.3 µM; in experiment [13] it was 31.4 µM (≈ 59.9 µg/mL); with Escherichia coli, 25.6 µM (≈ 48.9 µg/mL); in [14], 31.4 µM (≈ 59.9 µg/mL). Further, the MIC was 25.6 µM (≈ 48.9 µg/mL) with Lactococcus lactis; 3.27 µM (≈ 6.24 µg/mL) in [15]; no less than 52.3 µM in experiment [16]; greater than 52.3 µM in [17]; 26.2 µM (≈ 49.9 µg/mL) in experiment [18]; 7.85 µM (≈ 15 µg/mL) in experiment [19]. Further, the MIC with Staphylococcus aureus is 12.8 µM (≈ 24.4 µg/mL); in experiment [20] it was 13.1 µM (≈ 25 µg/mL).
Take `CC(C)[C@H](NC(=O)[C@H](CCCCN)NC(=O)[C@H](CCCN=C(N)N)NC(=O)[C@@H]1CCCN1C(=O)[C@H](CC(N)=O)NC(=O)[C@H](CCCN=C(N)N)NC(=O)[C@H](CCC(N)=O)NC(=O)[C@H](Cc1c[nH]c2ccccc12)NC(=O)[C@H](CCC(N)=O)NC(=O)[C@@H](N)Cc1ccccc1)C(=O)N[C@@H](CCCN=C(N)N)C(=O)O` [FQWQRNPRKVR]: the MIC was 10 µM (≈ 15.1 µg/mL) with Acinetobacter sp.; no less than 750 µM in experiment [21]; no less than 1000 µM in experiment [22]; no less than 1000 µM with Klebsiella aerogenes; no less than 1000 µM against Klebsiella sp.; no less than 1000 µM with Proteus mirabilis. Besides, the MIC with Providencia stuartii is no less than 1000 µM; in [23] it was no less than 250 µM.
On to `C[C@H](N)C(=O)N[C@@H](CCCN=C(N)N)C(=O)N[C@@H](Cc1c[nH]c2ccccc12)C(=O)N[C@@H](Cc1c[nH]c2ccccc12)C(=O)N[C@@H](Cc1c[nH]c2ccccc12)C(=O)N[C@@H](CCCN=C(N)N)C(=O)N[C@@H](C)C(N)=O` [ARWWWRA], for which the MIC is no less than 128 µM in experiment [24]; no less than 128 µM in experiment [25]; greater than 128 µM in experiment [26]; 16 µM (≈ 16.5 µg/mL) in [27]; no less than 128 µM against Escherichia coli 780; no less than 128 µM in the experiment with Escherichia coli 804. Moreover, the MIC is greater than 128 µM in experiment [28]; greater than 128 µM in experiment [29]; no less than 128 µM in experiment [30]; no less than 128 µM in [31]; greater than 128 µM in experiment [32]; greater than 128 µM in experiment [17]. The MIC in experiment [33] was no less than 64 µM; in the experiment with Staphylococcus aureus 75 it was no less than 64 µM; in experiment [34], 64 µM and 128 µM; in experiment [35] it was 128 µM (≈ 132 µg/mL); in experiment [20], 32 µM (≈ 33 µg/mL).

For the origin of these results see DBAASP.
